In patent US6489315B1, “Cyclic compounds, their production and use” (Takeda Chemical Industries, Ltd., priority 1995, dated 2002):

melting point [°C] | SMILES
257 to 258 | CC1CCn2c(c(-c3ccccc3)c3cccnc3c2=O)C(=O)N(Cc2cc(C(F)(F)F)cc(C(F)(F)F)c2)C1 (racemic) [Example 15, (+/−)-7-[3,5-Bis(trifluoromethyl)benzyl]-6,7,8,9,10,11-hexahydro-9-methyl-6,13-dioxo-5-phenyl-13H-[1,4]diazocino[2,1-g][1,7]naphthyridine]
203 to 205 | Cc1cnc2c(c1-c1ccccc1)C(=O)N(Cc1cc(C(F)(F)F)cc(C(F)(F)F)c1)CCN(C)C2=O [Example 50, 6-[3,5-Bis(trifluoromethyl)benzyl]-5,6,7,8,9,10-hexahydro-3,9-dimethyl-5,10-dioxo-4-phenylpyrido(2,3-f][1,4]diazocine]
147 to 149 | Cc1cnc2c(c1-c1ccccc1)C(=O)N(Cc1cc(C(F)(F)F)cc(C(F)(F)F)c1)C[C@@H](C)CO2 [Example 32, (R)-5-[3,5-Bis(trifluoromethyl)benzyl]-2,3,4,5-tetrahydro-3,8-dimethyl-6-oxo-7-phenyl-6H-pyrido[2,3-b][1,5]oxazocine]
247 to 249 | Cc1cnc2c(c1-c1ccccc1)C(=O)N(Cc1cc(C(F)(F)F)cc(C(F)(F)F)c1)CCCN(C)C2=O [Example 54, 6-[3,5-Bis(trifluoromethyl)benzyl]-6,7,8,9,10,11-hexahydro-3,10-dimethyl-5,11-dioxo-4-phenyl-5H-pyrido[2,3-g][1,5]diazonine]
245 to 247 | C[C@@H]1CCn2c(c(-c3ccccc3)c3cccnc3c2=O)C(=O)N(Cc2cc(C(F)(F)F)cc(C(F)(F)F)c2)C1 [Example 17, (9R)-7-[3,5-Bis(trifluoromethyl)benzyl]-6,7,8,9,10,11-hexahydro-9-methyl-6,13-dioxo-5-phenyl-13H-[1,4]diazocino[2,1-g][1,7]naphthyridine]
165 to 166 | CSCc1cc(-c2ccccc2)c2c(n1)OCCN(Cc1cc(C(F)(F)F)cc(C(F)(F)F)c1)C2=O [Example 42, 4-[3,5-Bis(trifluoromethyl)benzyl]-2,3,4,5-tetrahydro-8-methylthiomethyl-5-oxo-6-phenylpyrido[3,2-f][1,4]oxazepine]

The next lines start with the compound.

SMILES | melting point [°C]
O=C1c2c(-c3ccccc3)ccnc2OCCN1Cc1ccc(Cl)c(Cl)c1 [Example 65, 4-(3,4-Dichlorobenzyl)-2,3,4,5-tetrahydro-5-oxo-6-phenylpyrido[3,2-f][1,4]oxazepine] | 189 to 192
C[C@H]1COc2nccc(-c3ccccc3)c2C(=O)N(Cc2cc(C(F)(F)F)cc(C(F)(F)F)c2)C1 [Example 72, (R)-5-[3,5-Bis(trifluoromethyl)benzyl]-2,3,4,5-tetrahydro-3-methyl-6-oxo-7-phenyl-6H-pyrido[2,3-b][1,5]oxazocine] | 142 to 143
COc1cc(CN2CCOc3nccc(-c4ccccc4)c3C2=O)cc(OC)c1OC [Example 64, 2,3,4,5-Tetrahydro-5-oxo-6-phenyl-4-(3,4,5-trimethoxybenzyl)pyrido[3,2-f][1,4]oxazepine] | 177 to 179
C[C@H]1COc2nccc(-c3ccccc3)c2C(=O)N(Cc2ccccc2)C1 [Example 70, (R)-5-Benzyl-2,3,4,5-tetrahydro-3-methyl-6-oxo-7-phenyl-6H-pyrido[2,3-b][1,5]oxazocine] | 139 to 140
CC(=O)OCc1cc(-c2ccccc2)c2c(n1)OCCN(Cc1cc(C(F)(F)F)cc(C(F)(F)F)c1)C2=O [Example 37, 8-Acetoxymethyl-4-[3,5-bis(trifluoromethyl)benzyl]-2,3,4,5-tetrahydro-5-oxo-6-phenylpyrido(3,2-f][1,4]oxazepine] | 122 to 124
CNCc1cc(-c2ccccc2)c2c(n1)OCCN(Cc1cc(C(F)(F)F)cc(C(F)(F)F)c1)C2=O [Example 44, 4-[3,5-Bis(trifluoromethyl)benzyl]-2,3,4,5-tetrahydro-8-methylaminomethyl-5-oxo-6-phenylpyrido[3,2-f][1,4]oxazepine] | 152 to 154
